The values below come from patent US20220000832A1 (priority 2019, published 2022).

Structures are written as SMILES. Like-named read-outs stand apart in the source and are kept apart here.

The test system of data set [1] is Melb-a (melanoblast) cells. Description: cells. The format is cell-based.
Data set [2] concerns melb-a cells (melanoblasts). Description: cells. The format is cell-based. To be noted: for fold induction at 1 µM / fold induction at 10 µM / fold induction at 100 µM: read-out: Increase of cell migration rate compared to negative control.
In data set [3] the test system is Melb-a (melanoblast) cells.
[4] abbreviates: 96 h, read-out: Melanin content compared to negative control (%).
Where [5] appears, read: 24 h, read-out: Cell migration rate (%).

In the case of `O=Cc1ccc(CO)o1` [Example 1, 5-(hydroxymethyl)furan-2-carbaldehyde], the “Melanin content compared to negative control (in words)” value in data set [1] was “gradually increased”. Further, the “Melanin content (in words)” value in data set [1] (1000 μM) was “rather reduced”. Besides, the activity at 1000 µM in data set [1] (setting [4]) was found to be 149 ± 17.4%. Besides, in data set [2], the “Cell migration rate (in words)” value is “decreased” and the “Cell migration rate compared to negative control (in words)” value is on record as “gradually increased”. Also, in data set [2] (24 h), the fold induction at 1 µM came to 2 and the fold induction at 10 µM stood at 2.7. For the same molecule, in data set [2] (24 h, 100 μM), the fold induction at 100 µM was approximately 4. For the same molecule, in data set [2] (setting [5]), the activity at 25 µM is 263 ± 12.7%, the activity at 50 µM came to 309 ± 15.5% and the activity at 1000 µM came to 253 ± 13.4%. Moreover, in data set [3] (mouse), the Cell viability is on record as not below 105%.

`O=Cc1ccc(COCc2ccccc2)o1` [Example 2, 5-((benzyloxy)methyl)furan-2-carbaldehyde]: the activity at 10 µM worked out at 82.4 ± 4.25% in data set [1] (setting [4]) and 114 ± 18.9% in data set [2] (setting [5]).

For the molecule `C=CCOCc1ccc(C=O)o1` [Example 3, 5-((allyloxy)methyl)furan-2-carbaldehyde], the activity at 10 µM stood at 95.2 ± 7.54% in data set [1] (setting [4]) and 134 ± 11.7% in data set [2] (setting [5]).

Take `O=Cc1ccc(C(=O)NCc2ccccc2)o1` [Example 4, N-benzyl-5-formylfuran-2-carboxamide]: the activity at 10 µM in data set [1] (setting [4]) came out at 97.4 ± 4.47%; in data set [2] (setting [5]) it was 115 ± 19.5%.

As to `CCCNC(=O)c1ccc(C=O)o1` [Example 5, 5-formyl-N-propylfuran-2-carboxamide], the activity at 10 µM worked out at 94.3 ± 1.51% in data set [1] (setting [4]) and 229 ± 11.6% in data set [2] (setting [5]). Moreover, the fold induction at 10 µM in data set [2] (24 h) was more than 2.

With `CNC(=O)c1ccc(C=O)o1` [Example 6, 5-formyl-N-methylfuran-2-carboxamide], the figures for the activity at 10 µM in data set [1] (setting [4]) and in data set [2] (setting [5]) were 95.9 ± 2.87% and 139 ± 17.5%, respectively.

With `O=Cc1ccc(C(=O)OCc2ccccc2)o1` [Example 7, Benzyl 5-formylfuran-2-carboxylate], the activity at 10 µM in data set [1] (setting [4]) turned out to be 134 ± 2.32%; in data set [2] (setting [5]), 202 ± 61.9%. Further, the fold induction at 10 µM in data set [2] (24 h) was more than 2.

Regarding `C=CCOC(=O)c1ccc(C=O)o1` [Example 8, allyl 5-formylfuran-2-carboxylate], the activity at 10 µM in data set [1] (setting [4]) was found to be 122 ± 5.15%; in data set [2] (setting [5]) it was 178 ± 19.8%.

Regarding `COC(=O)c1ccc(C(OC)OC)o1` [Example 9, methyl 5-(dimethoxymethyl)furan-2-carboxylate], the “Melanin content compared to negative control (in words)” value in data set [1] is reported as “gradually increased”. In data set [1] (setting [4]), the activity at 1 µM came to 128 ± 7.18%, the activity at 10 µM was determined as 131 ± 2.03% and the activity at 100 µM is 142 ± 5.43%. The “Cell migration rate compared to negative control (in words)” value in data set [2] is “gradually increased”. In addition, in data set [2] (24 h), the fold induction at 1 µM was approximately 1.9 and the fold induction at 10 µM is more than 2. For the same molecule, in data set [2] (24 h, 100 μM), the fold induction at 100 µM was approximately 3. Besides, in data set [2] (setting [5]), the activity at 1 µM was determined as 198 ± 6.81% and the activity at 100 µM was found to be 303 ± 18.7%. Further, the Cell viability in data set [3] (mouse) is given as not below 99%.

As to `COC(=O)c1ccc(C=O)o1` [Example 10, methyl 5-formylfuran-2-carboxylate], the “Melanin content compared to negative control (in words)” value in data set [1] is listed as “gradually increased”. Also, the “Melanin content (in words)” value in data set [1] (100 μM) is recorded as “somewhat reduced”. In addition, in data set [1] (setting [4]), the activity at 1 µM worked out at 136 ± 5.19% and the activity at 100 µM came to 159 ± 1.77%. The “Cell migration rate compared to negative control (in words)” value in data set [2] is on record as “gradually increased”. In data set [2] (24 h), the fold induction at 1 µM was approximately 1.9 and the fold induction at 10 µM was more than 2. Also, the fold induction at 100 µM in data set [2] (24 h, 100 μM) was approximately 2.7. In addition, in data set [2] (setting [5]), the activity at 1 µM was 189 ± 11.4% and the activity at 100 µM is 283 ± 7.03%. The Cell viability in data set [3] (mouse) was not below 99%.

Regarding `CCOC(=O)c1ccc(CO)o1` [Example 11, ethyl 5-(hydroxymethyl)furan-2-carboxylate], the results for the activity at 10 µM in data set [1] (setting [4]) and in data set [2] (setting [5]) were 104 ± 4.63% and 112 ± 13.9%, respectively.

Take `OCc1ccc(CO)o1` [Example 12, Furan-2,5-diyldimethanol]: the activity at 10 µM in data set [1] (setting [4]) is 139 ± 1.6%; in data set [2] (setting [5]), 173 ± 29.9%.

Take `COC(=O)c1ccc(CO)o1` [Example 13, methyl 5-(hydroxymethyl)furan-2-carboxylate]: the activity at 10 µM is 145 ± 5.9% in data set [1] (setting [4]) and 161 ± 29.4% in data set [2] (setting [5]).

Take `O=C(O)c1ccc(CO)o1` [Example 14, 5-(hydroxymethyl)furan-2-carboxylic Acid]: the activity at 10 µM in data set [1] (setting [4]) was 158.4 ± 0.75%; in data set [2] (setting [5]), 264 ± 7.81%. In data set [2] (24 h), the fold induction at 10 µM was more than 2.

Consider `CC(O)c1ccc(COC2CCCCO2)o1` (centres unmarked) [Example 15, 1-(5-(((tetrahydro-2H-pyran-2-yl)oxy)methyl)furan-2-yl)ethanol], for which the activity at 10 µM came out at 144 ± 4.59% in data set [1] (setting [4]) and 197 ± 33.8% in data set [2] (setting [5]).

`CC(O)c1ccc(CO)o1` (centres unmarked) [Example 16, 1-(5-(hydroxymethyl)furan-2-yl)ethanol]: the activity at 10 µM is 139 ± 19.9% in data set [1] (setting [4]) and 215 ± 13.9% in data set [2] (setting [5]). The fold induction at 10 µM in data set [2] (24 h) was more than 2.

On to `O=Cc1ccc(C=O)o1` [Example 17, Furan-2,5-dicarbaldehyde], for which the “Melanin content compared to negative control (in words)” value in data set [1] (10 μM) is “lowered”. In addition, the activity at 10 µM in data set [1] (setting [4]) is 95.3 ± 6.49%; in data set [2] (setting [5]) it was 118 ± 21.9%. The “Cell viability (in words)” value is listed as “very low” in data set [3] and “low compared to when the compound of Example 1 was treated” in data set [3] (mouse). Moreover, the “Cell viability (%)” value in data set [3] (mouse) was 23.08 ± 5.95%.

Regarding `CC(O)c1ccc(C=O)o1` (centres unmarked) [Example 18, 5-(1-hydroxyethyl)furan-2-carbaldehyde], the “Melanin content compared to negative control (in words)” value in data set [1] is on record as “slightly increased”. Moreover, the “Melanin content (in words)” value in data set [1] (100 μM) is listed as “decreased”. Moreover, in data set [1] (setting [4]), the activity at 1 µM stood at 125 ± 3.04% and the activity at 100 µM is 128 ± 4.15%. In data set [2], the “Cell migration rate compared to negative control (in words)” value is listed as “gradually increased”. Besides, the “Cell migration rate (in words)” value in data set [2] (100 μM) is “rather decreased”. In data set [2] (24 h), the fold induction at 1 µM is approximately 1.7 and the fold induction at 10 µM is more than 2. Also, in data set [2] (setting [5]), the activity at 1 µM worked out at 177 ± 25.5% and the activity at 100 µM was found to be 167 ± 20.3%.

For `CC(=O)OC(C)c1ccc(C=O)o1` (centres unmarked) [Example 19, 1-(5-formylfuran-2-yl)ethyl Acetate], the values for the activity at 10 µM in data set [1] (setting [4]) and in data set [2] (setting [5]) were 116 ± 3.15% and 230 ± 25.1%, respectively. For the same molecule, the fold induction at 10 µM in data set [2] (24 h) was more than 2.

As for `CCC(O)c1ccc(C=O)o1` (centres unmarked) [Example 20, 5-(1-hydroxypropyl)furan-2-carbaldehyde], the activity at 10 µM amounted to 112 ± 1.5% in data set [1] (setting [4]) and 261 ± 16.8% in data set [2] (setting [5]). Moreover, the fold induction at 10 µM in data set [2] (24 h) is more than 2.

In the case of `CCC(OC(C)=O)c1ccc(C=O)o1` (centres unmarked) [Example 21, 1-(5-formylfuran-2-yl)propyl Acetate], the activity at 10 µM turned out to be 115 ± 2.96% in data set [1] (setting [4]) and 260 ± 16.5% in data set [2] (setting [5]). The fold induction at 10 µM in data set [2] (24 h) is more than 2.
